# What was measured:
# [1] = system: Prostaglandin E2 (PGE2) production in a mouse 3T3 fibroblast cell line; assay: Anti-inflammatory assay: secreted PGE2 from stimulated 3T3 fibroblasts; type: cell-based; details: 3T3 cells, 500 μM, dilution 500
# From the text: This assay was run to determine the effectiveness of the herbal formula to inhibit Prostaglandin E2 (PGE2) production in a mouse 3T3 fibroblast cell line.
# The anti-inflammatory assay measures the level of PGE2 in stimulated mouse fibroblast 3T3 cell line after treatment with the herbal formula. The use of a stimulated cell line rather than using isolated enzyme systems gives more useful data.
# PGE2 is formed in a variety of cells from PGH2, which itself is synthesized from arachiodonic acid by the enzyme prostaglandin synthetase. The assay measures secreted levels of PGE2 from the supernatant of the fibroblast cells.
# serum PSA = assay: Patient case studies: serum PSA; type: in vivo, human; details: Example 11; Casodex 50 mg once daily for three months; PSA before 41
# Method: Serum PSA was measured to be 300. This patient then started hormone therapy including an oral administration of 100 mg of Androcur (Cyproterone Acetate) 3 times per day, and a subcutaneous injection of 3.6 mg of Zolodex (Goserelin Acetate Implant) once per three months. The prostate has been monitored since with serum PSA levels, varying between “28-62”.
# In May 2001, the PSA level was measured to be 41. At that time, the patient stopped taking Androcur and Zolodex, and started to take Casodex 50 mg once daily. The treatment with Casodex continued for three months and follow-up blood tests indicated a serum PSA of 5.7.
# From August 2001, this patient started to combine Casodex with an oral administration of the herbal formula of the present invention. The intake dosage of the herbal formula was 2070 mg per day. This combination treatment continued for two months.
# From October 2001, the dosage of this herb formula was increased to 2760 mg per day. Following PSA level measurement was 2.3 in November 2001.
# The patient in this case study was a person. […] The PSA was measured to be 21.
# The prostate has been monitored approximately every 6 months. As the PSA reading was between “13-17” on occasions, when readings were high, antibiotics were prescribed for prostatitis. The PSA was measured to be 18.7 at August of 2001. […]
# PC-3 cell lines = assay: PC3 cell cycle analysis by flow cytometry of propidium iodide stained cells; type: cell-based; details: PC-3, paclitaxol 10 ng/mL (FIG. 3)
# Method: Cell cycle analysis was carried out using tablets/capsules of the present invention. The formulation was tested as a single tablet/capsule concentration in triplicate and as a two capsule concentration also in triplicate.
# Tablets/capsules were weighed, crushed and extracted with 10 ml of methanol. The extracts were sonicated for 40 mins and then spun down at 4000 rpm. The supernatant was removed and 100 μL of this extract was used in the cell cycle analysis. A further aliquot of this extract was subjected to HPLC-MS analysis as described in Example 3 below. Cells were split into 16×25 cm^2 flasks at a low concentration and allowed to grow to 65-70% confluence (at the time of addition the cells were in log phase). Flasks were incubated for 24 hours and control flasks of control media (no additions), an ethanol (100 μL EtOH), a control methanol (100 μL MeOH) and paclitaxol (10 μL of 0.01 mg/mL=10 ng/mL) were also run.
# Flow cytometry was performed on the fixed cells after washing in PBS and stained using propidium iodide (2% PI in 0.1% Triton X-100 containing 2 mg/mL Rnase A). A Becton Dickson FACSCaliber was used to assay the cells.
# LNCap cell lines = assay: LNCap cell cycle assay; type: cell-based; details: positive control (FIG. 7)
# Method: A anti-cancer activity assay was conducted with the results presented in Table 3 wherein the herb formula represents a combination according to the present invention. LNCap is an androgen-dependent prostate cancer cell line.
# HL60 cell lines = assay: HL60 cell cycle assay; type: cell-based, human; details: HL60, positive control (FIG. 10)
# Method: The bioactivity of the herb formula was assessed using HL60 cell lines. HL60 is a human promyelocytic leukemia cell line.
# [2] = target: T1, estrogen (E2) binding site on MCF-7 cell lines (Homo sapiens, UniProt P03372); assay: Estrogen binding assay, 3H 17-β-estradiol displacement; details: MCF-7, 197 μM, 1 nM 3H E2, 3 hours
# T1 construct: endogenous in cells; host or cells: MCF-7 breast cancer cells
# T1 sequence (P03372 1-595): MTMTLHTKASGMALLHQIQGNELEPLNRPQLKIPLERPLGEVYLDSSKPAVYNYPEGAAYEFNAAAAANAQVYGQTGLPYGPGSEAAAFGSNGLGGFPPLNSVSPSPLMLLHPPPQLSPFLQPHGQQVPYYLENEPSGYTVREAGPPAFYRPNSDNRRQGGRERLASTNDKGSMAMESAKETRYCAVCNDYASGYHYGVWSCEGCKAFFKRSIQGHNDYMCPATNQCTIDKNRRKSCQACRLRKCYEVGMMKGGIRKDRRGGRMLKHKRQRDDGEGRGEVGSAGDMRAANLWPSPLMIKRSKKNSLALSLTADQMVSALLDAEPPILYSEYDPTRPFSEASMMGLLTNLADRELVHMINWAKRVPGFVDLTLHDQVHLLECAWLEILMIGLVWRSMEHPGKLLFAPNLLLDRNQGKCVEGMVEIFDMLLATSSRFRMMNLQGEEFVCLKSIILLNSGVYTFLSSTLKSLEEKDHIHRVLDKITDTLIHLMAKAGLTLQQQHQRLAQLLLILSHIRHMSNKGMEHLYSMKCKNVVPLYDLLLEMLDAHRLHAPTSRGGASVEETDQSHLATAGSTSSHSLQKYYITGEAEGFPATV
# Method: The estrogen binding capacity of the herbal formula was investigated by assay. This assay was developed and run to determine if the herbal extracts that constitute the herbal formula have any binding activity towards the estrogen (E2) binding site on MCF-7 cell lines. The MCF-7 is a breast cancer cell line and was chosen because of the ability to express E2 binding sites.
# ^3H 17-β-estradiol (E2) was used at a final concentration in the wells of 1 nM in media. Samples were incubated for 3 hours after which the wells were aspirated and washed 3 times with warm PBS. Cell bound radioactivity was extracted with 300 μL EtOH which was added to each well and left to lyse for 20 min at room temperature. An aliquot was removed for counting, transferred to a counting plate and scintillant added and the plate counted in a Perkin Elmer MicroBeta.
compound,measurement,setting,value
CC(=O)Oc1ccccc1C(=O)O [Aspirin],% Control (secreted PGE2),[1],14.2%
CC(O)(CS(=O)(=O)c1ccc(F)cc1)C(=O)Nc1ccc(C#N)c(C(F)(F)F)c1 (centres unmarked) [Casodex],serum PSA,serum PSA,5.7
CC(=O)O[C@H]1C(=O)[C@@]2(C)[C@H]([C@H](OC(=O)c3ccccc3)[C@]3(O)C[C@H](OC(=O)[C@H](O)[C@@H](NC(=O)c4ccccc4)c4ccccc4)C(C)=C1C3(C)C)[C@]1(OC(C)=O)CO[C@@H]1C[C@@H]2O [Paclitaxol],cells in the G0-G1 phase,PC-3 cell lines,1.16%
same,cells in the G2-M phase,PC-3 cell lines,71.89%
same,cells in the S phase,PC-3 cell lines,26.95%
same,effect on the cell cycle,LNCap cell lines,arresting of cells in G2-M
same,effect on the cell cycle,HL60 cell lines,arrest the cells in the G2-M stage
O=c1c(-c2ccc(O)cc2)coc2cc(O)ccc12 [diadzein],displacement of 3H E2 from the E2 receptor,[2],> 60%

# — patent US20090232786A1, “HERBAL COMPOSITION FOR CANCER TREATMENT” (priority 2001, published 2009)
